Laboratory results: patent US20150133434A1, “Compositions and Methods for Reactivating Latent Immunodeficiency Virus” (priority 2012, published 2015)
Entries after “also recorded” stand apart in the source; their conditions may differ.

Experiments:
[1] = tested on: latent LTR-GFP construct in J-Lat A72 cells; assay: J-Lat A72 cells (LTR-GFP lacking Tat), flow cytometry of GFP; type: cell-based, HIV-1; conditions: 18 h
Procedure: (§1) HEK293T and Jurkat cells were obtained from the American Type Culture Collection. J-Lat (clones A2 and A72) cell lines were described. HEK293T cells were cultured in DMEM supplemented with 10% FBS, 1% L-glutamine and 1% penicillin-streptomycin (Life Technologies). Jurkat and J-Lat cells were cultured in RPMI supplemented with 10% FBS, 1% L-glutamine, and 1% penicillin-streptomycin. TNFα (Sigma-Aldrich) was used at concentrations of 0.25 or 1 ng/ml. Human αCD3 and αCD28 (BD Biosciences) were used at concentrations of 3 and 1 μg/ml, respectively. Prostratin (Sigma) was used at a suboptimal concentration of 0.5 μM, and SAHA (NCI Chemical Carcinogen Repository, Midwest Research Institute) was used at 2.5 μM.
(§2) To determine if BET inhibition specifically activates Tat-dependent transcription, a J-Lat cell line was utilized that harbored a latent lentiviral construct expressing Tat with GFP from the HIV LTR (clone A2; LTR-Tat-IRES-GFP). […] Stimulation with JQ1 yielded up to ninefold more GFP-expressing cells than control-treated cells, and a 22-fold increase was observed when cells were co-treated with JQ1 and low doses of TNFα (FIG. 21A). […] Here, an up to 22-fold increase in GFP^+ cells resulted from JQ1 treatment alone and a 45-fold increase when TNFα was added with JQ1 (FIG. 21B). Both cell lines were also treated with prostratin and SAHA (FIG. 27).
(§3) Two latent J-Lat cell lines A2 (containing a LTR-Tat-IRES-GFP construct) or A72 (containing a LTR-GFP construct) were treated with JQ1 or (R)-JQ1 in combination with TNFα or control at the indicated concentrations for 18 h, followed by flow cytometry analysis. […] Data represent average (±SD) of three independent experiments. All treatments in (A) and (B) on the X axis are in μM.

[2] = tested on: latent HIV (clone R7/E-/GFP) in Jurkat T cells; assay: Reactivation of latent HIV in polyclonal Jurkat T cells (clone R7/E-/GFP), flow cytometry of GFP; type: cell-based, HIV-1; conditions: compound alone, increasing amounts
Procedure: A polyclonal population of Jurkat T cells containing latent HIV (clone R7/E-/GFP) was treated with increasing amounts of JQ1. This viral clone contains a frameshift mutation in the viral Env gene to prevent viral spread and expresses GFP in the Nef open reading frame, which allows separation of actively infected GFP^+ from GFP^− cells by cell sorting. GFP^− cells, which are mostly uninfected but contain a small fraction of latently infected cells with silenced HIV transcription, were treated with JQ1. Activation of transcription was measured by flow cytometry of GFP. […] Stimulation of cells with JQ1 produced up to fivefold more GFP-expressing cells than control-treated cells.
HIV clones R7/E-/GFP and NL4-3/E-/GFP-IRES-nef were derived from pR7-GFP and pNLENG1-EGFP by mutating the Env gene by inserting an early stop codon in the NdeI site. […]. Jurkat cells were spininfected with 25 ng of p24 per 10^6 cells, and GFP^− cells where collected in two rounds of cell sorting 5 and 15 days after infection. The expanded population of GFP^− cells, composed of uninfected and latently infected cells, was seeded in 96-well plates and treated with the indicated concentration of drugs in duplicates. The percentage of GFP^+ cells was detected after 24 h at the MACSQuant VYB FACS analyzer. Data are expressed as the mean percentage of GFP^+ cells, subtracting the average percentage of spontaneous GFP-reactivation in the untreated samples. (A) Jurkat cells containing latent R7/E-/GFP virus were treated with JQ1 or (R)-JQ1 in combination with Prostratin (0.5 μM), SAHA (2.5 μM), TNFα (1 ng/μl), or control at the indicated concentrations for 18 h, followed by flow cytometry analysis. […] Results represent average of two independent experiments. All treatments in (A) and (B) on the X axis are in μM.

[3] = tested on: latent LTR-Tat-IRES-GFP construct in J-Lat A2 cells; assay: J-Lat A2 cells (LTR-Tat-IRES-GFP), flow cytometry of GFP; type: cell-based, HIV-1; conditions: 18 h
Procedure: as §1, §2, §3

[4] = tested on: latent DHIV-GFP, X4 virus in nonpolarized T helper cells; assay: Primary T-cell model of latency, ex vivo differentiated nonpolarized CD4+ T cells; type: cell-based, HIV-1; conditions: 96 h after compound addition; minor effect only at highest doses
[5] = tested on: latent HIV-1 in Bcl-2-transduced resting CD4+ T cells; type: cell-based; conditions: 24-72 h, average of two donors
[6] = tested on: HIV LTR-luciferase reporter (Tat transactivation); assay: Tat transactivation of the HIV promoter, LTR-luciferase in Jurkat 1G5-Tat cells; type: cell-based; conditions: 1G5-Tat clonal cell lines
Procedure: Compounds that specifically bind to the bromodomain of PCAF in vitro were tested in an in vivo assay that measures the transactivation of the HIV promoter by Tat. The Jurkat 1G5 cells contain a stably integrated and silent HIV LTR-luciferase reporter construct. These cells were infected with an HIV-based retroviral vector expressing a 101-amino acids Tat (Tat2ex), generating the 1G5-Tat cells. Introduction of Tat protein activates HIV transcription and produces a stable increase in luciferase activity. Clonal cell lines were derived from the original population and have characterized them in terms of luciferase expression and response to Tat inhibitors. Luciferase expression is stable over time in each clone and is inhibited by more than 80% in response to DRB, a known inhibitor of CDK9 kinase activity and Tat transactivation.
Compounds were tested by incubating them at various concentrations ranging from 1.25 to 40 μM on either 1G5 cells, to test for effects on the HIV LTR, or on 1G5-Tat cells to test for effects on Tat-induced HIV transcription. After 24 hr, cells were harvested and processed for luciferase activity measurement.

Row | Structure (SMILES) | activation of HIV transcription (GFP) [1] | reactivation of HIV-1 (GFP+ cells) [2] | activation of HIV transcription (GFP) [3] | reversal of latency (GFP) [4] | reactivation of latent HIV-1 relative to costimulation with αCD3 and αCD28 antibodies [5] | inhibition of luciferase expression [6] | activation of HIV transcription (GFP) ([1]; listed as I-BET151) | activation of HIV transcription (GFP) ([3]; listed as I-BET151)
1 | Cc1sc2c(c1C)C(c1ccc(Cl)cc1)=N[C@H](CC(=O)OC(C)(C)C)c1nnc(C)n1-2 [(R)-JQ1] | did not activate the integrated HIV promoter | not | inactive and not and did not activate the integrated HIV promoter |  |  |  |  | 
2 | O=C(CCCCCCC(=O)Nc1ccccc1)NO [SAHA, suberoylanilidehydroxamic acid] |  |  |  | resistant to reactivation |  |  |  | 
3 | COC(=O)C[C@@H]1N=C(c2ccc(Cl)cc2)c2c(sc(C)c2C)-n2c(C)nnc21 [MS417, Methyl 2-((6S)-4-(4-chlorophenyl)-2,3,9-trimethyl-6H-thieno[3,2-f][1,2,4]triazolo[4,3-a][1,4]diazepin-6-yl)acetate] | effectively activated HIV from latency; also recorded: increased GFP expression |  | effectively activated HIV from latency; also recorded: increased GFP expression | minor activatory effect | same activation |  |  | 
4 | OC[C@H]1O[C@@H](n2cnc3cc(Cl)c(Cl)cc32)[C@H](O)[C@@H]1O [DRB] |  |  |  |  |  | more than 80% |  | 
5 | COc1cc2c(cc1-c1c(C)noc1C)ncc1[nH]c(=O)n([C@H](C)c3ccccn3)c12 [I-Bet151, 7-(3,5-dimethylisoxazol-4-yl)-8-methoxy-1-((R)-1-(pyridin-2-yl)ethyl)-1H-imidazo[4,5-c]quinolin-2(3H)-one] | effectively activated HIV from latency |  | effectively activated HIV from latency |  | same activation |  | increased GFP expression | increased GFP expression
